Article PMC8878317, “Chemogenomics identifies acetyl-coenzyme A synthetase as a target for malaria treatment and prevention” (Cell Chemical Biology, 2022)
Like-named read-outs stand apart in the source and are kept apart here.

Assays:
PfAcAS WT = PfAcAS WT (Plasmodium falciparum, UniProt C6KTB4); test: EnzChek assay, recombinant PfAcAS WT (steady-state kinetics and IC50); format: biochemical, P. falciparum
Protocol: Steady-state kinetic measurements were conducted at room temperature using a PheraStar plate reader (BMG). The first step of the reaction of PfAcAS, which produces inorganic pyrophosphate (PPi) that is converted to two molecules of inorganic phosphate using a pyrophosphatase enzyme, was continuously monitored using the EnzChek Phosphate Assay Kit, which gives an absorbance readout at 360 nm (Figure 4A) ([Webb, 1992]). […] By adding CoA, the reaction rapidly proceeds to the second step resulting in further release of pyrophosphate, making the EnzChek assay a suitable option to continuously monitor the activity of PfAcAS. Typical kinetic assays were carried out in clear, flat-bottom, polystyrene, 384-well plates (Greiner) in an 80 μL reaction volume containing 100 mM HEPES (pH7.4), 100 mM NaCl, 250 mM KCl, 50 mM MgCl2, 1 mM DTT, 0.004% Tween 20, 0.5 U/mL pyrophosphatase, 0.1 mM MESG, 0.5 U/mL PNP, 2 mM ATP, 2 mM acetate, 0.5 mM CoA and 5 nM recombinant PfAcAS WT or 10 nM recombinant PfAcAS A597V or T648M. Assays were performed by adding 40 μL of a 2-times concentrated substrate mixture including MESG to all wells, and the reactions started by adding 40 μL of a 2-times concentrated reaction mixture containing all other components. The reactions were carried out for 2 to 4 hr with absorbance readings at 360 nm every two to four minutes. Reaction rates were extracted from the linear phase of activity, usually using 10 to 20 points between times of 30 and 100 min of the reactions. Using a phosphate standard curve obtained under the same buffer conditions used for the PfAcAS reactions (Figure S5A), the rates were then converted to velocity per second, conversion of one nanomolar of phosphate, per nanomolar of enzyme, per second. The substrates Km values were determined by varying the concentration of one of the substrates at saturating concentration of the other two substrates. Steady-state data were fitted using the nonlinear, least-squares, curve-fitting programs of Sigma-Plot for Windows, version 14.0. Individual saturation curves were fit to Equation 1(Equation 1) v=VS/K+S where V is the maximal velocity, S is the substrate concentration and K is the Michaelis constant for the substrate (Km). Individual saturation curves displaying substrate inhibition were fit to Equation 2(Equation 2) v=VS/K+S×(1+S/Ks) where Ks is the substrate inhibition constant.
To determine the steady-state inhibition parameters and patterns associated with both inhibitors, PfAcAS activity was studied in the presence of variable concentrations of one substrate, ATP, acetate or CoA, fixed saturating concentration of the other two substrates (acetate and CoA, ATP and CoA, or ATP and acetate) and several fixed concentrations of inhibitor. Assay ready plates containing different concentrations of inhibitor were prepared using an Echo 550 acoustic dispenser (Labcyte Inc.). The assays were carried out as described in the previous section. […] For better comparison between both inhibitors and proteins, the ymin was fixed to zero and the ymax to 100. Inhibition data showing linear, competitive patterns in double-reciprocal plots were fit to Equation 4(Equation 4) v=VS/K(1+I/Ki)+S where Ki is the dissociation constant for the enzyme-inhibitor complex. Inhibition data showing linear, mixed inhibition patterns in double-reciprocal plots were fit to Equation 5(Equation 5) v=VS/K(1+I/Kis)+S(1+I/Kii) where Kis is the dissociation constant for the free enzyme-inhibitor complex and Kii is the dissociation constant for the enzyme-substrate-inhibitor complex. Inhibition data showing linear, uncompetitive patterns in double-reciprocal plots were fit to Equation 6(Equation 6) v=VS/K+S(1+I/Ki)

[1] = tested on: P. falciparum NF54-PfAcAS-cKD; test: cKD compound susceptibility assay (luminescence, 72 hr), PfAcAS cKD line; format: cell-based; conditions: Plasmodium falciparum
Description: We used CRISPR-Cas9 to modify the native PfAcAS locus and install the linear pSN054 donor vector ([Nasamu et al., 2020]) that incorporates a C-terminal V5 and 2xHA-tags, a 10x aptamer array, and the TetR-DOZI expression cassette containing the blasticidin S deaminase gene, the reporter gene Renilla luciferase (RLuc), and the fusion proteins TetR-DOZI ([Ganesan et al., 2016]). The right homology region (RHR) was PCR amplified and inserted into pSN054 using the I-SceI restriction site. Fragments corresponding to the left homology region (LHR) fused to the re-codonized 3′-end of the gene (bp 2710–2991) as well as the target-specifying guide RNA sequence were synthesized using the BioXP 3200 System (SGI-DNA) and cloned into pSN054 using restriction sites FseI/AsisI and AflII, respectively. Donor vector generation was carried out via Gibson assembly, and the final construct was confirmed by restriction digests and Sanger sequencing. Primers used in this study are listed in the key resources table.
Transfection into Cas9-and T7 RNA polymerase-expressing NF54 parasites was carried out by preloading erythrocytes with the AcAS_pSN054 plasmid as described previously ([Deitsch et al., 2001]). Briefly, 50–100 μg of purified plasmid DNA were mixed with human red blood cells in 0.2 cm cuvettes and subjected to 8 square wave electroporation pulses of 365 V for 1 ms each, separated by 0.1 s. The DNA preloaded red blood cells were inoculated with schizont-stage parasites (e.g. NF54attB, NF54:pCRISPR) to achieve starting parasitemias ≤1% in RPMI 1640 Complete media. Cultures were maintained in 500 nM anhydrotetracycline (aTc; Sigma-Aldrich 37,919) and 2.5 μg/mL Blasticidin S (RPI Corp B12150–0.1). Emergence of transfectants was monitored via Giemsa smears and RLuc measurements. Clonal parasites were obtained by limiting dilution ([Rosario, 1981]).
Synchronous ring-stage, aptamer-regulated PfAcAS and control parasite lines were resuspended in varying aTc concentrations (high = 50 nM, low = 1 nM, and no aTc) and distributed into the drug plate. DMSO carrier and chloroquine (200 nM) wells served as positive and negative controls.

[2] = NF54, read-out: PfAcAS cKD EC50 ± SD (nM) (1nM aTc)
[3] = NF54, read-out: PfAcAS cKD EC50 ± SD (nM) (50nM aTc)

Chain of PfAcAS WT (C6KTB4 entry or part of it): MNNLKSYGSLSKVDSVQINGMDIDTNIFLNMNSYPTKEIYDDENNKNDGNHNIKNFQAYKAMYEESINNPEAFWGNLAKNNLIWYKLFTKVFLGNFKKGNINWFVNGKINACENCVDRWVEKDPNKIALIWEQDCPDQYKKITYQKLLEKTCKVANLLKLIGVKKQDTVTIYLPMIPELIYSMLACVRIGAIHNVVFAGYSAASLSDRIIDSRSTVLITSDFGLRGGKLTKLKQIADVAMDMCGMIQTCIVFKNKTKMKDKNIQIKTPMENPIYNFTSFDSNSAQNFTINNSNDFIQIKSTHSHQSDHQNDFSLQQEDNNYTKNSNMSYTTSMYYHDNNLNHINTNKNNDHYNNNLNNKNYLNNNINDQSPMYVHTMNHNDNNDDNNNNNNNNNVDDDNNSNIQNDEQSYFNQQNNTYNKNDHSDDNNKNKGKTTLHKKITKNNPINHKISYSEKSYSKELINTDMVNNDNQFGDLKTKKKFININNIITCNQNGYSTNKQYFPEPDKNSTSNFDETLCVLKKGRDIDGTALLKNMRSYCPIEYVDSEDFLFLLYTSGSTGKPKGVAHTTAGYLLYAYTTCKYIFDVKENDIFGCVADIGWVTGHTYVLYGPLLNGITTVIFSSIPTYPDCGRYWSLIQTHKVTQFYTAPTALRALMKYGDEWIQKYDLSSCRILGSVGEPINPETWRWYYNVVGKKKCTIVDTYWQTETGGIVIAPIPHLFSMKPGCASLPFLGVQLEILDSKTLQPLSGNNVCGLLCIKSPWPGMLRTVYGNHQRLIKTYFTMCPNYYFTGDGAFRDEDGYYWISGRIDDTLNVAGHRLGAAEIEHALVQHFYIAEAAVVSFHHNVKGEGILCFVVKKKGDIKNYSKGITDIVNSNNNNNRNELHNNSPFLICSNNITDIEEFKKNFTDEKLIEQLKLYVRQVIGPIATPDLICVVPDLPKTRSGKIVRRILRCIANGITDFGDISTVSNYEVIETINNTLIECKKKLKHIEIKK

**Q.** `CCN(CC)S(=O)(=O)c1ccc(Cl)c(C(=O)Nc2ccc3nc(C)sc3c2)c1` [MMV019721] was tested. Which “Hill, AcAS WT” value (PfAcAS WT) did it give?
**A.** 0.85 ± 0.04

**Q.** What about the IC50 (PfAcAS WT) of the same compound?
**A.** 73 ± 4 nM

**Q.** What about the EC50 [1, 2] of the same compound?
**A.** 7 ± 1.2 nM

**Q.** And the EC50 [1, 3]?
**A.** 43 ± 8.5 nM

**Q.** Which results are given for `O=C(NNC(=O)c1csnn1)c1ccc(Cl)cc1` [MMV084978]?
**A.** Hill, AcAS WT (PfAcAS WT): 0.85 ± 0.06; IC50 (PfAcAS WT): 370 ± 40 nM; EC50 [1, 2]: 45 ± 4.4 nM; EC50 [1, 3]: 240 ± 64 nM
